pIC50: −log10 of the molar value.
Key:
[1] = target: ACK1 (Homo sapiens, UniProt Q07912); assay: Inhibitory activity against ACK1 kinase; type: biochemical
Procedure: (§1) The inhibitory activities of the compounds of the present disclosure against two kinases, GCK and ACK1, were measured, and the IC50 values thereof were calculated.

[2] = target: T1, GCK (Homo sapiens, UniProt Q12851); assay: Inhibitory activity against GCK kinase; type: biochemical
T1 sequence (Q12851 1-820): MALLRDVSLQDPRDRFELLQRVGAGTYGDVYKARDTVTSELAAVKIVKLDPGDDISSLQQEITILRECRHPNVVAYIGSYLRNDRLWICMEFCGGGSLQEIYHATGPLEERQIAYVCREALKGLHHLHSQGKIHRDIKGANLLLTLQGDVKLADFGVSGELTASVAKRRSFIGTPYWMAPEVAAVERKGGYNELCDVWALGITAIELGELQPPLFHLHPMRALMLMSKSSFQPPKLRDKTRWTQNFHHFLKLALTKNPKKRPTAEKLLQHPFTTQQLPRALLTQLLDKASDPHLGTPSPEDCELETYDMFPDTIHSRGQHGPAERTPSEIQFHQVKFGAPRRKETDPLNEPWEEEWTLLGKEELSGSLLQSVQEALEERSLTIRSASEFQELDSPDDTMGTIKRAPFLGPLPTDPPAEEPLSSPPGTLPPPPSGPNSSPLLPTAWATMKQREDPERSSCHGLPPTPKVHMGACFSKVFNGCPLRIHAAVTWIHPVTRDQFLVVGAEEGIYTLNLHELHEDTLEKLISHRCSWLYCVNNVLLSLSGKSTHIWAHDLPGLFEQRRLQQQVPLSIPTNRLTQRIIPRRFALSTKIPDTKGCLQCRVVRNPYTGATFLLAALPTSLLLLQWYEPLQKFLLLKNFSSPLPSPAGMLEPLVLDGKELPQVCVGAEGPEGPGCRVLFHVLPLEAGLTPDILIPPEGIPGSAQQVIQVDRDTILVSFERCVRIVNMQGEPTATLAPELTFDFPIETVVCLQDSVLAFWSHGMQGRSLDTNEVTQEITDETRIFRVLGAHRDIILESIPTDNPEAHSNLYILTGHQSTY
Procedure: as §1

[3] = tested on: OCI-AML3 (N-Ras Q61L); assay: Proliferation inhibitory activity, OCI-AML3 cell line; type: cell-based; details: Homo sapiens, OCI-AML-3
Procedure: (§2) The inhibitory activities of the compounds of the present disclosure against the proliferation of the mt-NRAS (G12D) Ba/F3 and OCI-AML3 (mt-NRAS) cell lines were measured, and the […] values thereof were calculated.
Referring to the results in Table 2, it can be seen that the compound of the present disclosure has inhibitory activity against the proliferation of the human acute myeloid leukemia cell line (OCI-AML3) having the NRAS mutant gene, and the effect thereof is remarkable. Therefore, it can be seen that the compound of the present disclosure is particularly effective as a therapeutic agent for acute myeloid leukemia (AML).

[4] = tested on: Ba/F3 (N-Ras G12D); assay: Proliferation inhibitory activity, mt-NRAS (G12D) Ba/F3 cell line; type: cell-based; details: Mus musculus, BaF3
Procedure: as §2

Chain of ACK1 (Q07912 whole entry): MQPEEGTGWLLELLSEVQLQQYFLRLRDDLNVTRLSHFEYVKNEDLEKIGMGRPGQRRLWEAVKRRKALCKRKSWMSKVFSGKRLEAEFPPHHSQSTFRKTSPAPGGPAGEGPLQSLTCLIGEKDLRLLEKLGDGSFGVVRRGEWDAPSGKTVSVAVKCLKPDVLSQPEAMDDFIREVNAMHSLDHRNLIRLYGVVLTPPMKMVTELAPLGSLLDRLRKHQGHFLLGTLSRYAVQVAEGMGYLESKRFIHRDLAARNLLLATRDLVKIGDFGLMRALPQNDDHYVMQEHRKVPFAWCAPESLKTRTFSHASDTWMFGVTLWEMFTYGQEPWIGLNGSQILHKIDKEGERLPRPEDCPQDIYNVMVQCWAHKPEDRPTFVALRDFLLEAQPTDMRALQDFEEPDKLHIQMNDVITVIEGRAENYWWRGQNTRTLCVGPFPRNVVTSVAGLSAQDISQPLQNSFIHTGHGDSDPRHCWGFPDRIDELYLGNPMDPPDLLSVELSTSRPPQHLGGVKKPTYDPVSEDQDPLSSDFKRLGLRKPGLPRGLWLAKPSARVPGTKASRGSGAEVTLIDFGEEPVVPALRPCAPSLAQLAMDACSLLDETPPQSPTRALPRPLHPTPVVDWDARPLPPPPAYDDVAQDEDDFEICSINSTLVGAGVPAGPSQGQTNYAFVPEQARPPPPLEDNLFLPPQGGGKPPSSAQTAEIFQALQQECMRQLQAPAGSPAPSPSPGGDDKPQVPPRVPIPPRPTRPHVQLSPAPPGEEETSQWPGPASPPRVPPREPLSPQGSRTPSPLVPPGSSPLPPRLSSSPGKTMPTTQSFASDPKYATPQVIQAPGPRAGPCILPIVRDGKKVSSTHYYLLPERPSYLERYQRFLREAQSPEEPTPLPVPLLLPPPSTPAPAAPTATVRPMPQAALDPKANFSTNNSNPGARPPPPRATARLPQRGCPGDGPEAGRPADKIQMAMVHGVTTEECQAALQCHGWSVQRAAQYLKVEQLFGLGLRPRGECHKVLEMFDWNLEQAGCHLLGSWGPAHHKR

| SMILES | pIC50 [1] | pIC50 [2] | GI50 [3] | GI50 [4] |
| --- | --- | --- | --- | --- |
| COc1ccccc1-c1cnc(-c2ccc(C)c(N3Cc4cnc(Nc5cnn(C)c5)nc4N(C)C3=O)c2)[nH]1 [Compound No. 1, 3-(5-(5-(2-methoxyphenyl)-1H-imidazol-2-yl)-2-methylphenyl)-1-methyl-7-((1-methyl-1H-pyrazol-4-yl)amino)-3,4-dihydropyrimido[4,5-d]pyrimidin-2(1H)-one] | > 7.00 | 6.00 to 7.00 | < 0.5 µM | < 0.5 µM |
| COc1ccccc1-c1cnc(-c2ccc(C)c(N3Cc4cnc(Nc5ccc(C)nc5C)nc4N(C)C3=O)c2)[nH]1 [Compound No. 2, 7-((2,6-dimethylpyridin-3-yl)amino)-3-(5-(5-(2-methoxyphenyl)-1H-imidazol-2-yl)-2-methylphenyl)-1-methyl-3,4-dihydropyrimido[4,5-d]pyrimidin-2(1H)-one] | – | – | 0.5 to 3 µM | 0.5 to 3 µM |
| COc1ccccc1-c1cnc(-c2ccc(C)c(N3Cc4cnc(Nc5ccc(C)nc5)nc4N(C)C3=O)c2)[nH]1 [Compound No. 3, 3-(5-(5-(2-methoxyphenyl)-1H-imidazol-2-yl)-2-methylphenyl)-1-methyl-7-((6-methylpyridin-3-yl)amino)-3,4-dihydropyrimido[4,5-d]pyrimidin-2(1H)-one] | > 7.00 | 6.00 to 7.00 | < 0.5 µM | < 0.5 µM |
| CCN1CCC(n2cc(Nc3ncc4c(n3)N(C)C(=O)N(c3cc(-c5ncc(-c6ccccc6OC)[nH]5)ccc3C)C4)cn2)CC1 [Compound No. 4, 7-((1-(1-ethylpiperidin-4-yl)-1H-pyrazol-4-yl)amino)-3-(5-(5-(2-methoxyphenyl)-1H-imidazol-2-yl)-2-methylphenyl)-1-methyl-3,4-dihydropyrimido[4,5-d]pyrimidin-2(1H)-one] | > 7.00 | 6.00 to 7.00 | < 0.5 µM | < 0.5 µM |
| CCN1CCC(c2ccc(Nc3ncc4c(n3)N(C)C(=O)N(c3cc(-c5ncc(-c6ccccc6OC)[nH]5)ccc3C)C4)cn2)CC1 [Compound No. 5, 7-((6-(1-ethylpiperidin-4-yl)pyridin-3-yl)amino)-3-(5-(5-(2-methoxyphenyl)-1H-imidazole-2-yl)-2-methylphenyl)-1-methyl-3,4-dihydropyrimido[4,5-d]pyrimidin-2(1H)-one] | > 7.00 | 6.00 to 7.00 | < 0.5 µM | < 0.5 µM |
| COc1ccccc1-c1cnc(-c2ccc(C)c(N3Cc4cnc(Nc5ccc(N6CCN(C(C)=O)CC6)nc5)nc4N(C)C3=O)c2)[nH]1 [Compound No. 6, 7-((6-(4-acetylpiperazin-1-yl)pyridin-3-yl)amino)-3-(5-(5-(2-methoxyphenyl)-1H-imidazol-2-yl)-2-methylphenyl)-1-methyl-3,4-dihydropyrimido[4,5-d]pyrimidin-2(1H)-one] | > 7.00 | 5.00 to 6.00 | < 0.5 µM | < 0.5 µM |
| COc1ccccc1-c1cnc(-c2ccc(C)c(N3Cc4cnc(Nc5cnn(C6CCN(C(C)=O)CC6)c5)nc4N(C)C3=O)c2)[nH]1 [Compound No. 7, 7-((1-(1-acetylpiperidin-4-yl)-1H-pyrazol-4-yl)amino)-3-(5-(5-(2-methoxyphenyl)-1H-imidazol-2-yl)-2-methylphenyl)-1-methyl-3,4-dihydropyrimido[4,5-d]pyrimidin-2(1H)-one] | > 7.00 | 6.00 to 7.00 | < 0.5 µM | < 0.5 µM |
| Cc1ccc(Nc2ncc3c(n2)N(C)C(=O)N(c2cc(-c4ncc(-c5ccccc5OC(F)(F)F)[nH]4)ccc2C)C3)c(C)n1 [Compound No. 8, 7-((2,6-dimethylpyridin-3-yl)amino)-1-methyl-3-(2-methyl-5-(5-(2-(trifluoromethoxy)phenyl)-1H-imidazole-2-yl)phenyl)-3,4-dihydropyrimido[4,5-d]pyrimidin-2(1H)-one] | – | – | 3 to 5 µM | 0.5 to 3 µM |
| Cc1ccc(Nc2ncc3c(n2)N(C)C(=O)N(c2cc(-c4ncc(-c5ccccc5OC(F)(F)F)[nH]4)ccc2C)C3)cn1 [Compound No. 9, 1-methyl-3-(2-methyl-5-(5-(2-(trifluoromethoxy)phenyl)-1H-imidazol-2-yl)phenyl)-7-((6-methylpyridin-3-yl)amino)-3,4-dihydropyrimido[4,5-d]pyrimidin-2(1H)-one] | 6.00 to 7.00 | < 5.00 | 0.5 to 3 µM | < 0.5 µM |
| CCN1CCC(n2cc(Nc3ncc4c(n3)N(C)C(=O)N(c3cc(-c5ncc(-c6ccccc6OC(F)(F)F)[nH]5)ccc3C)C4)cn2)CC1 [Compound No. 10, 7-((1-(1-ethylpiperidin-4-yl)-1H-pyrazol-4-yl)amino)-1-methyl-3-(2-methyl-5-(5-(2-(trifluoromethoxy)phenyl)-1H-imidazol-2-yl)phenyl)-3,4-dihydropyrimido[4,5-d]pyrimidin-2(1H)-one] | > 7.00 | 6.00 to 7.00 | < 0.5 µM | < 0.5 µM |
| Cc1ccc(-c2ncc(-c3cccc(F)c3F)[nH]2)cc1N1Cc2cnc(NC3CC3)nc2N(C)C1=O [Compound No. 11, 7-(cyclopropylamine)-3-(5-(5-(2,3-difluorophenyl)-1H-imidazol-2-yl)-2-methylphenyl)-1-methyl-3,4-dihydropyrimido[4,5-d]pyrimidin-2(1H)-one] | 5.00 to 6.00 | < 5.00 | 0.5 to 3 µM | 0.5 to 3 µM |
| Cc1ccc(Nc2ncc3c(n2)N(C)C(=O)N(c2cc(-c4ncc(-c5cccc(F)c5F)[nH]4)ccc2C)C3)cn1 [Compound No. 12] | 6.00 to 7.00 | < 5.00 | < 0.5 µM | 0.5 to 3 µM |
| Cc1ccc(Nc2ncc3c(n2)N(C)C(=O)N(c2cc(-c4ncc(-c5cccc(C(F)(F)F)c5)[nH]4)ccc2C)C3)cn1 [Compound No. 13, 1-methyl-3-(2-methyl-5-(5-(3-(trifluoromethyl)phenyl)-1H-imidazol-2-yl)phenyl)-7-((6-methylpyridin-3-yl)amino)-3,4-dihydropyrimido[4,5-d]pyrimidin-2(1H)-one] | 5.00 to 6.00 | < 5.00 | < 0.5 µM | 3 to 5 µM |
| CC(=O)N1CCN(c2ccc(Nc3ncc4c(n3)N(C)C(=O)N(c3cc(-c5ncc(-c6ccccc6OC(F)(F)F)[nH]5)ccc3C)C4)cn2)CC1 [Compound No. 14, 7-((6-(4-acetylpiperazin-1-yl)pyridin-3-yl)amino)-1-methyl-3-(2-methyl-5-(5-(2-(trifluoromethoxy)phenyl)-1H-imidazol-2-yl)phenyl)-3,4-dihydropyrimido[4,5-d]pyrimidin-2(1H)-one] | 6.00 to 7.00 | 6.00 to 7.00 | 0.5 to 3 µM | 0.5 to 3 µM |
| CCN1CCC(c2ccc(Nc3ncc4c(n3)N(C)C(=O)N(c3cc(-c5ncc(-c6ccccc6OC(F)(F)F)[nH]5)ccc3C)C4)cn2)CC1 [Compound No. 15, 7-((6-(1-ethylpiperidin-4-yl)pyridin-3-yl)amino)-1-methyl-3-(2-methyl-5-(5-(2-(trifluoromethoxy)phenyl)-1H-imidazol-2-yl)phenyl)-3,4-dihydropyrimido[4,5-d]pyrimidin-2(1H)-one] | – | – | > 5 µM | 3 to 5 µM |
| CCN1CCN(c2ccc(Nc3ncc4c(n3)N(C)C(=O)N(c3cc(-c5ncc(-c6ccccc6OC(F)(F)F)[nH]5)ccc3C)C4)cn2)CC1 [Compound No. 16, 7-((6-(4-ethylpiperazin-1-yl)pyridin-3-yl)amino)-1-methyl-3-(2-methyl-5-(5-(2-(trifluoromethoxy)phenyl)-1H-imidazol-2-yl)phenyl)-3,4-dihydropyrimido[4,5-d]pyrimidin-2(1H)-one] | – | – | > 5 µM | > 5 µM |
| CC(=O)N1CCC(n2cc(Nc3ncc4c(n3)N(C)C(=O)N(c3cc(-c5ncc(-c6ccccc6OC(F)(F)F)[nH]5)ccc3C)C4)cn2)CC1 [Compound No. 17, 7-((1-(1-acetylpiperidin-4-yl)-1H-pyrazol-4-yl)amino)-1-methyl-3-(2-methyl-5-(5-(2-(trifluoromethoxy)phenyl)-1H-imidazol-2-yl)phenyl)-3,4-dihydropyrimido[4,5-d]pyrimidin-2(1H)-one] | – | – | > 5 µM | > 5 µM |

Source: patent US20260070913A1, “7-AMINO-3,4-DIHYDROPYRIMIDOPYRIMIDIN-2-ONE DERIVATIVE HAVING INHIBITORY ACTIVITY FOR PROTEIN KINASES AND THERAPEUTIC PHARMACEUTICAL COMPOSITION COMPRISING SAME” (KOREA INSTITUTE OF SCIENCE AND TECHNOLOGY, priority 2020, published 2026)
